# Key:
# [1] = Water absorption at 95% relative atmospheric humidity; format: physicochemical; details: relative atmospheric humidity of 95% (saturated solution of Na2HPO4×12 H2O with sediment in water), within one day
# Source text: At a relative atmospheric humidity of 95% (established using a saturated solution of Na2HPO4×12 H2O with sediment in water), the solid obtained according to this procedure absorbs approximately 17% by weight of water within one day.
# At a relative atmospheric humidity of 95% (established using a saturated solution of Na2HPO4×12 H2O with sediment in water), the solid obtained according to this procedure absorbs approximately 1% by weight of water within one day.
# [2] = Storage stability of the crystal modification; format: physicochemical
# Source text: In addition, compared with amorphous CCDC, the modification B tends to absorb less water from the atmosphere. For these reasons, it is highly suitable for preparing tablets or other solid formulations. Owing to its stability, it gives these formulations the desired long-lasting storage stability. Using the crystal modification B, it is therefore possible to prepare, in a defined and targeted manner, stable solid preparations of CCDC.
water absorbed by the solid [1],SMILES,stability of crystal modification on prolonged storage [2]
approximately 17 % by weight,"N#Cc1c(N2C[C@@H]3CCCN[C@@H]3C2)c(F)cc2c(=O)c(C(=O)O)cn(C3CC3)c12 [Comparative Example, 8-cyano-1-cyclopropyl-7-(1 S,6S-2,8-diazabicyclo[4.3.0]nonan-8-yl)-6-fluoro-1,4-dihydro-4-oxo-3-quinolinecarboxylic acid, reference compound]",
approximately 1 % by weight,"N#Cc1c(N2C[C@@H]3CCCN[C@@H]3C2)c(F)cc2c(=O)c(C(=O)O)cn(C3CC3)c12 [Example 1, 8-cyano-1-cyclopropyl-7-(1 S,6S-2,8-diazabicyclo[4.3.0]nonan-8-yl)-6-fluoro-1,4-dihydro-4-oxo-3-quinolinecarboxylic acid]",does not change into another crystal modification or the amorphous form
